By inhibition is commonly meant the change of the read-out against control, counted positive when it falls.

In this assay the target is Beta-secretase 1 (Homo sapiens) (UniProt P56817). Briefly: Inhibition of recombinant BACE1 (unknown origin) using synthetic dodecapeptide with BACE1 cleavage sequence of Swedish type as substrate at 2 mM after 30 mins.
Sequence of Beta-secretase 1 (Homo sapiens) (P56817 whole entry): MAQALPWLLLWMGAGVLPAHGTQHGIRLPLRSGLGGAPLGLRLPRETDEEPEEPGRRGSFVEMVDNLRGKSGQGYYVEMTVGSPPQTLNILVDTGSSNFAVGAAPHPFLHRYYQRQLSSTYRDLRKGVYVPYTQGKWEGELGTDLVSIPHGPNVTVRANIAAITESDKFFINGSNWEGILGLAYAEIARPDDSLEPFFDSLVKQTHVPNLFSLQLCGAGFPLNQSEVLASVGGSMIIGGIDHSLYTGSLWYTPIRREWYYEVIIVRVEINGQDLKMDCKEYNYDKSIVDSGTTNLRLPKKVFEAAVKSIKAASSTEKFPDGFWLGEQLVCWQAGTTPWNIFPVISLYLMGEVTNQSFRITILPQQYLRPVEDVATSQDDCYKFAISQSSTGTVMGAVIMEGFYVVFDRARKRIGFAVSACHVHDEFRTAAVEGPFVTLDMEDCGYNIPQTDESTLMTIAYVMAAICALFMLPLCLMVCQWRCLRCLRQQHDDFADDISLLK
For `COc1cccc(C(O)CCCCc2ccc(NC(C)=O)nc2)c1` (stereo unspecified), the inhibition turned out to be 20%.

In the case of `COc1cccc(C(O)CCc2cccnc2NC(C)=O)c1` (stereo unspecified), the inhibition was found to be 18%.

`COc1cccc(CCCCc2ccc(NC(C)=O)nc2)c1`: the inhibition is 20%.

For `COc1cccc(C(O)CCCCc2cccc(NC(C)=O)n2)c1` (stereo unspecified), the inhibition worked out at 56%.

Consider `COc1cccc(CCCCc2cccc(NC(C)=O)n2)c1`, for which the inhibition turned out to be 21%.

In the case of `COCOc1ccc(C(=O)Nc2ccc(CCCCC(O)c3cccc(OC)c3)cn2)cc1` (stereo unspecified), the inhibition was determined as 19%.

Values taken from ChEMBL document CHEMBL3632491, “Synthesis and evaluation of aminopyridine derivatives as potential BACE1 inhibitors” (Bioorg Med Chem Lett, 2015).
